Results from ChEMBL document CHEMBL4190263, “Bacterial Production of a Pederin Analogue by a Free-Living Marine Alphaproteobacterium” (2017).

Columns and labels:
Type in all cases: functional
HT-29 = test: Antiproliferative activity against human HT-29 cells assessed as growth inhibition after 72 hrs by SRB assay; settings: HT-29, 72 h
PSN1 = test: Antiproliferative activity against human PSN1 cells assessed as growth inhibition after 72 hrs by SRB assay; settings: PSN1, 72 h
A549 = test: Antiproliferative activity against human A549 cells assessed as growth inhibition after 72 hrs by SRB assay; settings: A549, 72 h
MDA-MB-231 = test: Antiproliferative activity against human MDA-MB-231 cells assessed as growth inhibition after 72 hrs by SRB assay; settings: MDA-MB-231, 72 h

Measured: GI50

C=C1C[C@](OC)([C@H](O)C(=O)N[C@@H](OC)[C@@H]2C[C@@H](O)C(C)(C)[C@@H](C[C@@H](CO)OC)O2)O[C@H](C)[C@@H]1C
2 to 2.9 nM: all assays above
